Data reported in paper PMC6843404, “Conferring the Metabolic Self-Sufficiency of the CAM Plasmid of Pseudomonas putida ATCC 17453: The Key Role of Putidaredoxin Reductase” (Microorganisms, 2019).

Key:
[1] = biological target: T1, PdR (Pseudomonas putida, UniProt P16640); assay: spectrophotometric NADH oxidation at […] nm; assay type: biochemical; details: anaerobic
T1 construct: gene camA
T1 sequence (P16640 1-422): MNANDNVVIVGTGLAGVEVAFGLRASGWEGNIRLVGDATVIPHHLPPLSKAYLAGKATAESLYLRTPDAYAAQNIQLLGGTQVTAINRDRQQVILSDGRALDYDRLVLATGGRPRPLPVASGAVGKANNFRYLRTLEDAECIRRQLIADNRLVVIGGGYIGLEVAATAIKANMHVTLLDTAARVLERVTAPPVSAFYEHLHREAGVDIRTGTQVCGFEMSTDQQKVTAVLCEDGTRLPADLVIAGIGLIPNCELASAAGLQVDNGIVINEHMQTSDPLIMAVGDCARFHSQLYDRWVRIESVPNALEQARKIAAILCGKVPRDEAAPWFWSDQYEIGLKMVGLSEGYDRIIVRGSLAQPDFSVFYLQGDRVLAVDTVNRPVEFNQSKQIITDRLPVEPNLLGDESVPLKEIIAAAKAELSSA

[2] = biological target: T2, Fred (Pseudomonas putida, UniProt M4YFG7); assay: spectrophotometric NADH oxidation at […] nm; assay type: biochemical; details: anaerobic
T2 construct: native, highly purified, chromosome-coded, 36 kDa homodimer
T2 sequence (M4YFG7 2-170): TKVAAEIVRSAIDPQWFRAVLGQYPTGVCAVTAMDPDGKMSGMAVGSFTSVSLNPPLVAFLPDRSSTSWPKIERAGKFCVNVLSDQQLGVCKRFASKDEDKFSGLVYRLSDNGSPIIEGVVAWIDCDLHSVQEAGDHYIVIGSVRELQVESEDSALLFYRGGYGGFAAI

| Compound | spectrophotometric NADH oxidation at 340 nm ([1]; NADH as co-substrate) | spectrophotometric NADH oxidation at 340 nm ([2]; NADH as co-substrate) | spectrophotometric NADH oxidation at 340 nm ([1]; FMN as co-substrate) | spectrophotometric NADH oxidation at 340 nm ([2]; FMN as co-substrate) |
| --- | --- | --- | --- | --- |
| Cc1cc2nc3c(=O)[nH]c(=O)nc-3n(C[C@H](O)[C@H](O)[C@H](O)COP(=O)(O)O)c2cc1C [FMN] | measuring the initial rate of enzyme-catalysed reduction of FMN by NADH | measuring the initial rate of enzyme-catalysed reduction of FMN by NADH |  |  |
| NC(=O)C1=CN([C@@H]2O[C@H](COP(=O)(O)OP(=O)(O)OC[C@H]3O[C@@H](n4cnc5c(N)ncnc54)[C@H](O)[C@@H]3O)[C@@H](O)[C@H]2O)C=CC1 [NADH] |  |  | measuring the initial rate of enzyme-catalysed reduction of FMN by NADH | measuring the initial rate of enzyme-catalysed reduction of FMN by NADH |
